Measured values from PubChem BioAssay AID2060492 (Molecular Pharmacology Branch, DTP, NCI, 2025).

Tested on: 695427-040-R-J1-PDC complex spheroids, viability percent T/C
Assay: Anticancer human tumor 695427-040-R-J1-PDC patient-derived colon adenocarcinoma cell line growth inhibition [GQUAD]
Conditions: for IC50: curve of first compound; for viability, T/C: stronger effect = lower value
How it was run: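 Multi-cell-type spheroids of tumor cells with HUVEC and mesenchymal stem cells, treated with drug combinations. Concentrations descend in half-log steps from near clinical Cmax, or from 10 microM where Cmax is unknown; viability read-out.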

[1] = second compound 0.0316 µM, first compound 0.0316 µM
[2] = second compound 0.0316 µM, first compound 0.1 µM
[3] = second compound 0.0316 µM, first compound 0.316 µM
[4] = second compound 0.0316 µM, first compound 1 µM
[5] = second compound 0.0316 µM, first compound 3.16 µM
[6] = second compound 0.0316 µM, first compound 10 µM
[7] = second compound 0.1 µM, first compound 0.0316 µM
[8] = second compound 0.1 µM, first compound 0.1 µM
[9] = second compound 0.1 µM, first compound 0.316 µM
[10] = second compound 0.1 µM, first compound 1 µM
[11] = second compound 0.1 µM, first compound 3.16 µM
[12] = second compound 0.1 µM, first compound 10 µM
[13] = second compound 0.316 µM, first compound 0.0316 µM
[14] = second compound 0.316 µM, first compound 0.1 µM
[15] = second compound 0.316 µM, first compound 0.316 µM
[16] = second compound 0.316 µM, first compound 1 µM
[17] = second compound 0.316 µM, first compound 3.16 µM
[18] = second compound 0.316 µM, first compound 10 µM
[19] = second compound 1 µM, first compound 0.0316 µM
[20] = second compound 1 µM, first compound 0.1 µM
[21] = second compound 1 µM, first compound 0.316 µM
[22] = second compound 1 µM, first compound 1 µM
[23] = second compound 1 µM, first compound 3.16 µM
[24] = second compound 1 µM, first compound 10 µM
[25] = second compound 3.16 µM, first compound 0.0316 µM
[26] = second compound 3.16 µM, first compound 0.1 µM
[27] = second compound 3.16 µM, first compound 0.316 µM
[28] = second compound 3.16 µM, first compound 1 µM
[29] = second compound 3.16 µM, first compound 3.16 µM
[30] = second compound 3.16 µM, first compound 10 µM
[31] = second compound 10 µM, first compound 0.0316 µM
[32] = second compound 10 µM, first compound 0.1 µM
[33] = second compound 10 µM, first compound 0.316 µM
[34] = second compound 10 µM, first compound 1 µM
[35] = second compound 10 µM, first compound 3.16 µM
[36] = second compound 10 µM, first compound 10 µM
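Also: spheroids exposed to compounds for seven days before readout.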

Q: Which results are given for `COc1cccc2c1C(=O)c1c(O)c3c(c(O)c1C2=O)CC(O)(C(=O)CO)CC3OC1CC(N)C(O)C(C)O1` (stereo unspecified) + CN(C)c1ccc(Nc2c3ccc(NC(=O)CCN4CCCC4)cc3nc3cc(NC(=O)CCN4CCCC4)ccc23)cc1?
A: IC50 (second compound 0.0316 µM): 9.64 µM; IC50 (second compound 0.1 µM): > 10 µM; IC50 (second compound 0.316 µM): > 10 µM; IC50 (second compound 1 µM): 9.98 µM; IC50 (second compound 3.16 µM): 8.08 µM; IC50 (second compound 10 µM): > 10 µM; viability, T/C [1]: 97%; viability, T/C [2]: 86.8%; viability, T/C [3]: 90.3%; viability, T/C [4]: 82.3%; viability, T/C [5]: 63.1%; viability, T/C [6]: 49.7%; viability, T/C [7]: 102%; viability, T/C [8]: 92%; viability, T/C [9]: 85.9%; viability, T/C [10]: 81.3%; viability, T/C [11]: 66.6%; viability, T/C [12]: 53.2%; viability, T/C [13]: 93.2%; viability, T/C [14]: 89.4%; viability, T/C [15]: 90.2%; viability, T/C [16]: 80.5%; viability, T/C [17]: 63.8%; viability, T/C [18]: 50.1%; viability, T/C [19]: 90.6%; viability, T/C [20]: 87.2%; viability, T/C [21]: 81.5%; viability, T/C [22]: 78.3%; viability, T/C [23]: 69.3%; viability, T/C [24]: 49.4%; viability, T/C [25]: 97.1%; viability, T/C [26]: 87.2%; viability, T/C [27]: 87.6%; viability, T/C [28]: 77.9%; viability, T/C [29]: 65.5%; viability, T/C [30]: 46%; viability, T/C [31]: 89.2%; viability, T/C [32]: 84.6%; viability, T/C [33]: 81.8%; viability, T/C [34]: 76.1%; viability, T/C [35]: 68.2%; viability, T/C [36]: 52.3%

Q: Which IC50 (second compound 0.0316 µM) does the source give for `Cc1cccc(N(C)C(=O)C2C(O)CCN2c2nc(C)cc(C(F)(F)F)c2C#N)c1` (stereo unspecified) + CN(C)c1ccc(Nc2c3ccc(NC(=O)CCN4CCCC4)cc3nc3cc(NC(=O)CCN4CCCC4)ccc23)cc1 here?
A: > 10 µM

Q: What about the IC50 (second compound 0.1 µM) of the same molecule?
A: > 10 µM

Q: What about the IC50 (second compound 0.316 µM) of the same molecule?
A: > 10 µM

Q: And the IC50 (second compound 1 µM)?
A: > 10 µM

Q: And the IC50 (second compound 3.16 µM)?
A: > 10 µM

Q: And the IC50 (second compound 10 µM)?
A: > 10 µM

Q: What about the viability, T/C [1] of the same molecule?
A: 111%

Q: What about the viability, T/C [2] of the same molecule?
A: 103%

Q: What about the viability, T/C [3] of the same molecule?
A: 106%

Q: And the viability, T/C [4]?
A: 99.9%

Q: And the viability, T/C [5]?
A: 107%

Q: And the viability, T/C [6]?
A: 90.3%

Q: And the viability, T/C [7]?
A: 110%

Q: What about the viability, T/C [8] of the same molecule?
A: 92.3%

Q: And the viability, T/C [9]?
A: 106%

Q: What about the viability, T/C [10] of the same molecule?
A: 102%

Q: What about the viability, T/C [11] of the same molecule?
A: 101%

Q: What about the viability, T/C [12] of the same molecule?
A: 95.6%

Q: And the viability, T/C [13]?
A: 110%

Q: What about the viability, T/C [14] of the same molecule?
A: 101%

Q: What about the viability, T/C [15] of the same molecule?
A: 97.3%

Q: And the viability, T/C [16]?
A: 98.2%

Q: What about the viability, T/C [17] of the same molecule?
A: 107%

Q: What about the viability, T/C [18] of the same molecule?
A: 103%

Q: And the viability, T/C [19]?
A: 104%

Q: What about the viability, T/C [20] of the same molecule?
A: 90.7%

Q: And the viability, T/C [21]?
A: 98.3%

Q: What about the viability, T/C [22] of the same molecule?
A: 96.1%

Q: What about the viability, T/C [23] of the same molecule?
A: 104%

Q: And the viability, T/C [24]?
A: 101%

Q: And the viability, T/C [25]?
A: 93.6%

Q: What about the viability, T/C [26] of the same molecule?
A: 94.6%

Q: What about the viability, T/C [27] of the same molecule?
A: 95.4%

Q: What about the viability, T/C [28] of the same molecule?
A: 95.6%

Q: What about the viability, T/C [29] of the same molecule?
A: 106%

Q: What about the viability, T/C [30] of the same molecule?
A: 93.9%

Q: What about the viability, T/C [31] of the same molecule?
A: 81%

Q: And the viability, T/C [32]?
A: 86.6%

Q: What about the viability, T/C [33] of the same molecule?
A: 88.9%

Q: And the viability, T/C [34]?
A: 78.8%

Q: And the viability, T/C [35]?
A: 91.2%

Q: What about the viability, T/C [36] of the same molecule?
A: 85.8%

Q: `Cn1ncnc1[C@H]1c2n[nH]c(=O)c3cc(F)cc(c23)N[C@@H]1c1ccc(F)cc1` + CN(C)c1ccc(Nc2c3ccc(NC(=O)CCN4CCCC4)cc3nc3cc(NC(=O)CCN4CCCC4)ccc23)cc1 was tested. Which IC50 (second compound 0.0316 µM) did it give?
A: > 0.316 µM

Q: And the IC50 (second compound 0.1 µM)?
A: > 0.316 µM

Q: What about the IC50 (second compound 0.316 µM) of the same molecule?
A: > 0.316 µM

Q: And the IC50 (second compound 1 µM)?
A: > 0.316 µM

Q: What about the IC50 (second compound 3.16 µM) of the same molecule?
A: > 0.316 µM

Q: And the IC50 (second compound 10 µM)?
A: > 0.316 µM

Q: What about the viability, T/C (second compound 0.0316 µM, first compound 0.000999 µM) of the same molecule?
A: 102%

Q: And the viability, T/C (second compound 0.0316 µM, first compound 0.00316 µM)?
A: 92.9%

Q: And the viability, T/C (second compound 0.0316 µM, first compound 0.00999 µM)?
A: 101%

Q: What about the viability, T/C [1] of the same molecule?
A: 103%

Q: And the viability, T/C (second compound 0.0316 µM, first compound 0.0999 µM)?
A: 100%

Q: What about the viability, T/C [3] of the same molecule?
A: 93%

Q: What about the viability, T/C (second compound 0.1 µM, first compound 0.000999 µM) of the same molecule?
A: 112%

Q: What about the viability, T/C (second compound 0.1 µM, first compound 0.00316 µM) of the same molecule?
A: 89.1%

Q: What about the viability, T/C (second compound 0.1 µM, first compound 0.00999 µM) of the same molecule?
A: 95.7%

Q: And the viability, T/C [7]?
A: 92.8%

Q: What about the viability, T/C (second compound 0.1 µM, first compound 0.0999 µM) of the same molecule?
A: 93.5%

Q: And the viability, T/C [9]?
A: 97.5%

Q: What about the viability, T/C (second compound 0.316 µM, first compound 0.000999 µM) of the same molecule?
A: 88.2%

Q: And the viability, T/C (second compound 0.316 µM, first compound 0.00316 µM)?
A: 95.8%

Q: And the viability, T/C (second compound 0.316 µM, first compound 0.00999 µM)?
A: 99.5%

Q: And the viability, T/C [13]?
A: 96.6%

Q: And the viability, T/C (second compound 0.316 µM, first compound 0.0999 µM)?
A: 90.9%

Q: What about the viability, T/C [15] of the same molecule?
A: 91.2%

Q: And the viability, T/C (second compound 1 µM, first compound 0.000999 µM)?
A: 105%

Q: And the viability, T/C (second compound 1 µM, first compound 0.00316 µM)?
A: 97.8%

Q: And the viability, T/C (second compound 1 µM, first compound 0.00999 µM)?
A: 91.5%

Q: What about the viability, T/C [19] of the same molecule?
A: 104%

Q: What about the viability, T/C (second compound 1 µM, first compound 0.0999 µM) of the same molecule?
A: 101%

Q: What about the viability, T/C [21] of the same molecule?
A: 87.3%

Q: What about the viability, T/C (second compound 3.16 µM, first compound 0.000999 µM) of the same molecule?
A: 99.6%

Q: And the viability, T/C (second compound 3.16 µM, first compound 0.00316 µM)?
A: 94.7%

Q: What about the viability, T/C (second compound 3.16 µM, first compound 0.00999 µM) of the same molecule?
A: 88.8%

Q: What about the viability, T/C [25] of the same molecule?
A: 94.2%

Q: What about the viability, T/C (second compound 3.16 µM, first compound 0.0999 µM) of the same molecule?
A: 95%

Q: And the viability, T/C [27]?
A: 93.4%

Q: And the viability, T/C (second compound 10 µM, first compound 0.000999 µM)?
A: 93.3%

Q: And the viability, T/C (second compound 10 µM, first compound 0.00316 µM)?
A: 89.8%

Q: And the viability, T/C (second compound 10 µM, first compound 0.00999 µM)?
A: 77.3%

Q: What about the viability, T/C [31] of the same molecule?
A: 86.2%

Q: And the viability, T/C (second compound 10 µM, first compound 0.0999 µM)?
A: 96.4%

Q: What about the viability, T/C [33] of the same molecule?
A: 90.1%
